Drawing on US20210253575A1, “PYRROLIDINE AMINE COMPOUNDS FOR THE TREATMENT OF AUTOIMMUNE DISEASE” (Hoffmann-La Roche Inc., priority 2018, published 2021), this text covers IC50 for 11 compounds.

In the experiment the target is T1, human TLR7 (Homo sapiens, UniProt Q9NYK1).
T1 sequence (Q9NYK1 27-1049): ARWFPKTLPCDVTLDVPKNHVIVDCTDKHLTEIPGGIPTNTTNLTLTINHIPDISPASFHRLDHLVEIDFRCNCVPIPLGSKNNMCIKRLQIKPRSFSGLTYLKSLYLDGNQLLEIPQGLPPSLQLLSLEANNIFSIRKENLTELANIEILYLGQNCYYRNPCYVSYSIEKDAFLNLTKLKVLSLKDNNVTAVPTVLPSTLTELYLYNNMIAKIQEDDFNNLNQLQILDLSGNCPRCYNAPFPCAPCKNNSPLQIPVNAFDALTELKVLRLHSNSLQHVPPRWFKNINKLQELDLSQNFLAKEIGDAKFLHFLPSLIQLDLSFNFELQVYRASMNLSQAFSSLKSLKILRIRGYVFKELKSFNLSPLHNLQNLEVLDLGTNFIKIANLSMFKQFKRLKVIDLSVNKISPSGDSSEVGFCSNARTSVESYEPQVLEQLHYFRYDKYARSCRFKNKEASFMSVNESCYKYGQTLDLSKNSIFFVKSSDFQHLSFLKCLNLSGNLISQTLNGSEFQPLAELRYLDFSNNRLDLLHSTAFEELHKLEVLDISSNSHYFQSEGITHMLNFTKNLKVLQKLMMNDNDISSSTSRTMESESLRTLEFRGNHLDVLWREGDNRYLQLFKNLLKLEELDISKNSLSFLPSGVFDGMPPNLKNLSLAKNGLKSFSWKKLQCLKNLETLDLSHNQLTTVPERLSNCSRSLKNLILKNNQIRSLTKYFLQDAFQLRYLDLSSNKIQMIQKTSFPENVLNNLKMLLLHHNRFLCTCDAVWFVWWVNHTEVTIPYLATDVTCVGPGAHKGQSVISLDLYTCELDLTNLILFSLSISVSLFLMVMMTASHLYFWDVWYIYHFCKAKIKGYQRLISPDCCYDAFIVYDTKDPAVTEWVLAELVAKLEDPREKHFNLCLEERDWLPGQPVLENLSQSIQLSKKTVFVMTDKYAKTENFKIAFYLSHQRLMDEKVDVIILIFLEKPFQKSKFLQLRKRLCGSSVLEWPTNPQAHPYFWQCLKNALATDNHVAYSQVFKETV
Description: HEK293-Blue-hTLR-7 cells assay (SEAP reporter, R848 stimulation). In kind it is cell-based. The settings on record: HEK293-Blue-hTLR7 cells, R848 ligand, 20 hrs incubation. In a few lines: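 Antagonism measured in stable HEK293-Blue-hTLR7 cells carrying an NF-κB/AP-1-driven SEAP reporter, stimulated with R848 (10 µL of 20 µM stock) with serially diluted compound, 1% DMSO, 20 h at 37 °C. Supernatant SEAP read with QUANTI-Blue after 2 h at 37 °C, absorbance 620–655 nm.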
As a reminder, the IC50 is the concentration that gives 50% inhibition. `C[C@H]1CN(C[C@H]2CN(c3ccc(C#N)c4nccnc34)C[C@@H]2C(F)(F)F)CC[C@H]1N` [Example 72, 8-[(3S,4R)-3-[[(3S,4R)-4-amino-3-methyl-1-piperidyl]methyl]-4-(trifluoromethyl)pyrrolidin-1-yl]quinoxaline-5-carbonitrile] yielded an IC50 of 13 nM. That is a double-digit nanomolar value.

`N#Cc1ccc(N2C[C@H](CN3CC4CCC(C3)C4N)[C@@H](C(F)(F)F)C2)c2nccnc12` (stereo partly drawn) [Example 73, 8-[(3S,4R)-3-[(8-amino-3-azabicyclo[3.2.1]octan-3-yl)methyl]-4-(trifluoromethyl)pyrrolidin-1-yl]quinoxaline-5-carbonitrile] gave an IC50 of 20 nM.

As to `N#Cc1ccc(N2C[C@H](CN3CCC(CN)CC3)[C@@H](C(F)(F)F)C2)c2nccnc12` [Example 74, 8-[(3S,4R)-3-[[4-(aminomethyl)-1-piperidyl]methyl]-4-(trifluoromethyl)pyrrolidin-1-yl]quinoxaline-5-carbonitrile], the IC50 came to 28 nM.

On to `CC1(CN)CCCN(C[C@H]2CN(c3ccc(C#N)c4nccnc34)C[C@@H]2C(F)(F)F)C1` (stereo partly drawn) [Example 75, 8-[(3S,4R)-3-[[3-(aminomethyl)-3-methyl-1-piperidyl]methyl]-4-(trifluoromethyl)pyrrolidin-1-yl]quinoxaline-5-carbonitrile], for which the IC50 was determined as 26 nM.

In turn, `N#Cc1ccc(N2C[C@H](CN3CC4CNCC4C3)[C@@H](C(F)(F)F)C2)c2nccnc12` (stereo partly drawn) [Example 76, 8-[(3S,4R)-3-(2,3,3a,4,6,6a-hexahydro-1H-pyrrolo[3,4-c]pyrrol-5-ylmethyl)-4-(trifluoromethyl)pyrrolidin-1-yl]quinoxaline-5-carbonitrile] had a half-maximal inhibitory concentration (IC50) of 21 nM.

`N#Cc1ccc(N2C[C@H](CN3CC4CCC3CN4)[C@@H](C(F)(F)F)C2)c2nccnc12` (stereo partly drawn) [Example 77, 8-[(3S,4R)-3-(2,5-diazabicyclo[2.2.2]octan-2-ylmethyl)-4-(trifluoromethyl)pyrrolidin-1-yl]quinoxaline-5-carbonitrile]: the IC50 stood at 13 nM.

`N#Cc1ccc(N2C[C@H](CN3CCCC(F)(CN)C3)[C@@H](C(F)(F)F)C2)c2nccnc12` (stereo partly drawn) [Example 78, 8-[(3S,4R)-3-[[3-(aminomethyl)-3-fluoro-1-piperidyl]methyl]-4-(trifluoromethyl)pyrrolidin-1-yl]quinoxaline-5-carbonitrile] yielded an IC50 of 32 nM.

In the case of `N#Cc1ccc(N2C[C@H](CN3CCC(CCN)CC3)[C@@H](C(F)(F)F)C2)c2nccnc12` [Example 79, 8-[(3S,4R)-3-[[4-(2-aminoethyl)-1-piperidyl]methyl]-4-(trifluoromethyl)pyrrolidin-1-yl]quinoxaline-5-carbonitrile], the IC50 is 37 nM.

Regarding `CN(C)C1CCN(C[C@H]2CN(c3ccc(C#N)c4nccnc34)C[C@@H]2C(F)(F)F)CC1` [Example 80, 8-[(3S,4R)-3-[[4-(dimethylamino)-1-piperidyl]methyl]-4-(trifluoromethyl)pyrrolidin-1-yl]quinoxaline-5-carbonitrile], the IC50 is 14 nM.

`CNCC1CCN(C[C@H]2CN(c3ccc(C#N)c4nccnc34)C[C@@H]2C(F)(F)F)CC1` [Example 81, 8-[(3S,4R)-3-[[4-(methylaminomethyl)-1-piperidyl]methyl]-4-(trifluoromethyl)pyrrolidin-1-yl]quinoxaline-5-carbonitrile] registered an IC50 of 32 nM. Against the preceding compound, the IC50 is about 2.3-fold higher.

In turn, `CN(C)C[C@@H]1CCN(C[C@H]2CN(c3ccc(C#N)c4nccnc34)C[C@@H]2C(F)(F)F)C1` [Example 82, 8-[(3S,4R)-3-[[(3S)-3-[(dimethylamino)methyl]pyrrolidin-1-yl]methyl]-4-(trifluoromethyl)pyrrolidin-1-yl]quinoxaline-5-carbonitrile] showed an IC50 of 106 nM.
